From ChEMBL document CHEMBL4376834, “Discovery of 4H-Chromen-4-one Derivatives as a New Class of Selective Rho Kinase (ROCK) Inhibitors, which Showed Potent Activity in ex Vivo Diabetic Retinopathy Models” (J Med Chem, 2019)
pIC50: −log10 of the molar value.

Experiments:
[1] = target: Protein kinase C theta type (Homo sapiens, UniProt Q04759); test: Inhibition of recombinant full length human PKCtheta using histone H1 as substrate incubated for 40 mins in presence of [gamma33P]ATP by radiometric scintillation counting analysis
[2] = target: Hepatocyte growth factor receptor (Homo sapiens, UniProt P08581, D1228H); test: Inhibition of recombinant human MET A1209G/V1290L/D1246H triple mutant (974 to end residues) using KKKGQEEEYVFIE as substrate incubated for 40 mins in presence of [gamma-33ATP by radiometric scintillation counting analysis
[3] = target: Insulin-like growth factor 1 receptor (Homo sapiens, UniProt P08069); test: Inhibition of human recombinant activated IGF1R (959 to end residues) using KKKSPGEYVNIEF as substrate after 40 mins by [gamma-33ATP] by radiometric scintillation counting analysis
[4] = target: Non-receptor tyrosine-protein kinase TYK2 (Homo sapiens, UniProt P29597); test: Inhibition of recombinant human TYK2 (875 to end residues) using GGMEDIYFEFMGG as substrate incubated for 40 mins in presence of [gamma33P]ATP by radiometric scintillation counting analysis
[5] = target: Serine/threonine-protein kinase SIK1 (Homo sapiens, UniProt P57059); test: Inhibition of recombinant human SIK (1 to 281 residues) using AMARAASAAALARas substrate incubated for 40 mins in presence of [gamma33P]ATP by radiometric scintillation counting analysis
[6] = target: Ribosomal protein S6 kinase alpha-4 (Homo sapiens, UniProt O75676); test: Inhibition of recombinant human MSK2 (2 to end residues) using GRPRTSSFAEGKK as substrate incubated for 40 mins in presence of [gamma-33ATP by radiometric scintillation counting analysis
[7] = target: G protein-coupled receptor kinase 5 (Homo sapiens, UniProt P34947); test: Inhibition of recombinant full length human GRK5 using casein as substrate after 40 mins in presence of [gamma-33ATP] by radiometric scintillation counting analysis
[8] = Inhibition of recombinant full length human JNK2alpha2 S51N mutant using ATF2 as substrate after 40 mins by [gamma-33ATP] by radiometric scintillation counting analysis
[9] = target: Tyrosine-protein kinase ABL1 (Homo sapiens, UniProt P00519, Q252H); test: Inhibition of human recombinant ABL1 Q252H mutant (27 to end residues) using EAIYAAPFAKKK as substrate incubated for 40 mins in presence of [gamma-33P]ATP by radiometric scintillation counting analysis
[10] = target: Hepatocyte growth factor receptor (Homo sapiens, UniProt P08581, Y1230H); test: Inhibition of recombinant human MET A1209G/V1290L/Y1248H triple mutant (974 to end residues) using KKKGQEEEYVFIE as substrate incubated for 40 mins in presence of [gamma-33ATP by radiometric scintillation counting analysis
CDK9/cyclin T1 = CDK9/cyclin T1 (Homo sapiens, UniProt P50750); test: Inhibition of recombinant full length human CDK9/cyclinT1 using KTFCGTPEYLAPE as substrate incubated for 40 mins in presence of [gamma-33ATP] by radiometric scintillation counting analysis; format: protein-complex assay
[11] = target: Calcium/calmodulin-dependent protein kinase type II subunit gamma (Homo sapiens, UniProt Q13555); test: Inhibition of recombinant human CaMK2gamma (1 to 330 residues) using calmodulin as substrate incubated for 40 mins in presence of [gamma-33ATP] by radiometric scintillation counting analysis
[12] = target: STE20-like serine/threonine-protein kinase (Homo sapiens, UniProt Q9H2G2); test: Inhibition of recombinant human SLK (1 to 373 residues) using RLGRDKYKTLRQI as substrate incubated for 40 mins in presence of [gamma33P]ATP by radiometric scintillation counting analysis
[13] = Inhibition of recombinant human MARK1 V16E/T20S double mutant (2 to end residues) using KKKVSRSGLYRSP as substrate incubated for 40 mins in presence of [gamma-33ATP by radiometric scintillation counting analysis
[14] = target: Serine/threonine-protein kinase MRCK alpha (Homo sapiens, UniProt Q5VT25); test: Inhibition of recombinant human MRCKalpha (1 to 473 residues) using KKRNRTLTV as substrate incubated for 40 mins in presence of [gamma-33ATP by radiometric scintillation counting analysis
[15] = target: Dual specificity mitogen-activated protein kinase kinase 7 (Homo sapiens, UniProt O14733); test: Inhibition of recombinant human MKK7 (2 to end residues) using inactive JNK1a1 as substrate incubated for 40 mins by radiometric scintillation counting analysis
[16] = target: Tyrosine-protein kinase ABL1 (Homo sapiens, UniProt P00519, T315I); test: Inhibition of human recombinant ABL1 T315I mutant (27 to end residues) using EAIYAAPFAKKK as substrate incubated for 40 mins in presence of [gamma-33P]ATP by radiometric scintillation counting analysis
[17] = target: Protein kinase C alpha type (Homo sapiens, UniProt P17252); test: Inhibition of recombinant human full length PKCalpha using histone as substrate incubated for 40 mins in presence of [gamma33P]ATP by radiometric scintillation counting analysis
[18] = target: Serine/threonine-protein kinase PAK 3 (Homo sapiens, UniProt O75914); test: Inhibition of recombinant full-length human PAK3 using RRRLSFAEPG as substrate measured after 40 mins in presence of [gamma33P]ATP by radiometric scintillation counting analysis
[19] = target: Tyrosine-protein kinase JAK2 (Homo sapiens, UniProt O60674); test: Inhibition of human recombinant JAK2 (808 to end residues) using KTFCGTPEYLAPE as substrate after 40 mins by [gamma-33ATP] by radiometric scintillation counting analysis
[20] = target: Serine/threonine-protein kinase DCLK3 (Homo sapiens, UniProt Q9C098); test: Inhibition of recombinant human DCAMKL3 (345 to end residues) using KKLNRTLSFAEPG as substrate after 40 mins in presence of [gamma-33ATP] by radiometric scintillation counting analysis
[21] = target: Testis-specific serine/threonine-protein kinase 2 (Homo sapiens, UniProt Q96PF2); test: Inhibition of recombinant full-length human TSSK2 using KKKVSRSGLYRSP as substrate incubated for 40 mins in presence of [gamma33P]ATP by radiometric scintillation counting analysis
[22] = target: Dual specificity tyrosine-phosphorylation-regulated kinase 3 (Homo sapiens, UniProt O43781); test: Inhibition of recombinant full length human DYRK3 using RRRFRPASPLRGPP as substrate after 40 mins in presence of [gamma-33ATP] by radiometric scintillation counting analysis
Ephrin type-A receptor 2 = Ephrin type-A receptor 2 (Homo sapiens, UniProt P29317); test: Inhibition of recombinant human EphA2 (596 to 900 residues) using poly(Glu, Tyr) 4:1 as substrate after 40 mins in presence of [gamma-33ATP] by radiometric scintillation counting analysis
[23] = Inhibition of human recombinant full length AURORA-A I31F mutant using kemptide as substrate incubated for 40 mins in presence of [gamma-33P]ATPand 10 uM ATP by radiometric scintillation counting analysis

Sequence of G protein-coupled receptor kinase 5 (P34947 whole entry): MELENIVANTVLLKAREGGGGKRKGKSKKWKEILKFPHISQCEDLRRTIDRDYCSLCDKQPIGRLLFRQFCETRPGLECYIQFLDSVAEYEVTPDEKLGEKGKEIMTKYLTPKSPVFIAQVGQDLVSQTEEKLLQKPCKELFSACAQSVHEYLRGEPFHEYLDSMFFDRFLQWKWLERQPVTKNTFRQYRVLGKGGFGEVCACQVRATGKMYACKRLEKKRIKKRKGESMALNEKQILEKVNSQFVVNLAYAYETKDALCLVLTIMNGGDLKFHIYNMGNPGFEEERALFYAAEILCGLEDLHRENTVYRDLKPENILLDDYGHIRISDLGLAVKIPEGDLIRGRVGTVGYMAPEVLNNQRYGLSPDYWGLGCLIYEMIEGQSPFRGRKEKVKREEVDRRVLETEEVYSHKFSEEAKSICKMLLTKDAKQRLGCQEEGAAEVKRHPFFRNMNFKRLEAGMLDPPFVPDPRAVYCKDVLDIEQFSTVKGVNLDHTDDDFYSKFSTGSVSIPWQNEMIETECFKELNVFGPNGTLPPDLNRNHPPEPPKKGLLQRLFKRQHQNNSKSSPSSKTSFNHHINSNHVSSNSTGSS
Sequence of Testis-specific serine/threonine-protein kinase 2 (Q96PF2 whole entry): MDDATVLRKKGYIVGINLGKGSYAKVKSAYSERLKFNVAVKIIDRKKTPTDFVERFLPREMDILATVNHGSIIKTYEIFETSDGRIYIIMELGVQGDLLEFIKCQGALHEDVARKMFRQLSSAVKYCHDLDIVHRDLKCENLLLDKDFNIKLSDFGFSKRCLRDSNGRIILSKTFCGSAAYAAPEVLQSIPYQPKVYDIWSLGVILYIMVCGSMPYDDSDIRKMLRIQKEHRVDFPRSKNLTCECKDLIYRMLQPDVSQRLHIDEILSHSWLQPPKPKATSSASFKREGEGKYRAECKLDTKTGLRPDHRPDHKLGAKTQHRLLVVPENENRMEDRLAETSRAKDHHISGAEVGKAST
Sequence of Dual specificity mitogen-activated protein kinase kinase 7 (O14733 whole entry): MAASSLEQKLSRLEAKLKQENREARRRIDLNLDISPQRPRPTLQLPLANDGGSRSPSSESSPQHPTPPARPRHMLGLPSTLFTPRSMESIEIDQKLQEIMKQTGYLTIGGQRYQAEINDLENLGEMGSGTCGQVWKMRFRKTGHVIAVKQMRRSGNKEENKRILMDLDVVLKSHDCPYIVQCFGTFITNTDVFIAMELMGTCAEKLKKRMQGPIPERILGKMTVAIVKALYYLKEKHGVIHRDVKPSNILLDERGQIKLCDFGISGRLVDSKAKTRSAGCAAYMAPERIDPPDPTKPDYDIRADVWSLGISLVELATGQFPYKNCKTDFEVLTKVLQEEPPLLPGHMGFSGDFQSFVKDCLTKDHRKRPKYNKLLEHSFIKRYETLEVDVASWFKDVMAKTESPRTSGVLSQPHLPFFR
Sequence of Serine/threonine-protein kinase DCLK3 (Q9C098 whole entry): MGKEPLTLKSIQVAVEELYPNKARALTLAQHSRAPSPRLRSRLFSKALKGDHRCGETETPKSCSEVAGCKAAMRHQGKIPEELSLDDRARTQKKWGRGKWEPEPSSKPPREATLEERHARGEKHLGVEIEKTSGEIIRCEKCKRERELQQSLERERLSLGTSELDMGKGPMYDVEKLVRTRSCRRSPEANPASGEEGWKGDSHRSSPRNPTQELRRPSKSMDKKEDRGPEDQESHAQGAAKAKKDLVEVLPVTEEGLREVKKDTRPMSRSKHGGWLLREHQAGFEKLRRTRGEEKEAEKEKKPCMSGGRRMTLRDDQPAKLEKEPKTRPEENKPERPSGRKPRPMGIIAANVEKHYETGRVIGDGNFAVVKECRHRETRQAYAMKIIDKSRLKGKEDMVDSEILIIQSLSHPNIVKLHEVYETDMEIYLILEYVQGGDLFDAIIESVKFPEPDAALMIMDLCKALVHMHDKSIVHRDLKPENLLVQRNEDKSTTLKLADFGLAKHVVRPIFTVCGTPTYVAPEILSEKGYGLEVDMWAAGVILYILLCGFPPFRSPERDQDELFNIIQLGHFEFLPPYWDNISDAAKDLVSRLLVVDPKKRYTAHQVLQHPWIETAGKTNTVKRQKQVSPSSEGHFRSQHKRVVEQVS
Sequence of Hepatocyte growth factor receptor (Homo sapiens, UniProt P08581, Y1230H) (P08581 25-1390 Y1230H limits assumed): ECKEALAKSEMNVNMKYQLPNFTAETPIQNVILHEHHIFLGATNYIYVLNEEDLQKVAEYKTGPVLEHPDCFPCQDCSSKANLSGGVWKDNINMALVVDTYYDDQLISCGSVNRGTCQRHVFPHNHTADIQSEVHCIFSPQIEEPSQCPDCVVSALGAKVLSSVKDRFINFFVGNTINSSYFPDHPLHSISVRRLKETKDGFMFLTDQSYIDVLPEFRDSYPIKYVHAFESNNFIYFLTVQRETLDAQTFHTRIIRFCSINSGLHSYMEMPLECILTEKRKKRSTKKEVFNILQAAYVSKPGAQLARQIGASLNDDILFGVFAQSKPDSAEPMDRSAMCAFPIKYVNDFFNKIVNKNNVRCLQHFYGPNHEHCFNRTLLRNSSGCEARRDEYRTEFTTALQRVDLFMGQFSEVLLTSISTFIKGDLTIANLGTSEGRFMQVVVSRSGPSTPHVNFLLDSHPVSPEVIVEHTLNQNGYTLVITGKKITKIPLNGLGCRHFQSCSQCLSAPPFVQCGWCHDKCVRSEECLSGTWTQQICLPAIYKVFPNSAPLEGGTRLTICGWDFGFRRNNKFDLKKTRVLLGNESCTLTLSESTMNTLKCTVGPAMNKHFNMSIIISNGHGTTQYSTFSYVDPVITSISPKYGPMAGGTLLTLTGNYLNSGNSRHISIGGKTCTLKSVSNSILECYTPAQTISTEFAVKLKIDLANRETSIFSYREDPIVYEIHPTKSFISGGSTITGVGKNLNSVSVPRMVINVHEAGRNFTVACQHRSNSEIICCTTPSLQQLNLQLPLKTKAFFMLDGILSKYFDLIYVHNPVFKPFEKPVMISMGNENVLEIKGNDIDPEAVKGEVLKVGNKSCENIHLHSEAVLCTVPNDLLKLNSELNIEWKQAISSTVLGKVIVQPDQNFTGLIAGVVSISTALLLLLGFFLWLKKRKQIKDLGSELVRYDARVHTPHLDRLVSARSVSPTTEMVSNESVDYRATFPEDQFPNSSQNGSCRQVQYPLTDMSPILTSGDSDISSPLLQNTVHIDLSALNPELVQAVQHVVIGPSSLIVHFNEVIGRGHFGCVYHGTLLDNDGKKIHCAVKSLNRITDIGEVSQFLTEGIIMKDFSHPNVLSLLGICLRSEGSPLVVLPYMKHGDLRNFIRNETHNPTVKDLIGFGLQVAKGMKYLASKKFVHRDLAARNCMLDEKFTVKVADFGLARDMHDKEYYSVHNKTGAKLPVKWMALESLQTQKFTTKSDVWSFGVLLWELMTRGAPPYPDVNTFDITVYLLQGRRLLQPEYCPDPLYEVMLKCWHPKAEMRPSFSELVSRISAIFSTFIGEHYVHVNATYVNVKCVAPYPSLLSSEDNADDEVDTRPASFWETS
Sequence of Ephrin type-A receptor 2 (P29317 whole entry, the tested form may be a part): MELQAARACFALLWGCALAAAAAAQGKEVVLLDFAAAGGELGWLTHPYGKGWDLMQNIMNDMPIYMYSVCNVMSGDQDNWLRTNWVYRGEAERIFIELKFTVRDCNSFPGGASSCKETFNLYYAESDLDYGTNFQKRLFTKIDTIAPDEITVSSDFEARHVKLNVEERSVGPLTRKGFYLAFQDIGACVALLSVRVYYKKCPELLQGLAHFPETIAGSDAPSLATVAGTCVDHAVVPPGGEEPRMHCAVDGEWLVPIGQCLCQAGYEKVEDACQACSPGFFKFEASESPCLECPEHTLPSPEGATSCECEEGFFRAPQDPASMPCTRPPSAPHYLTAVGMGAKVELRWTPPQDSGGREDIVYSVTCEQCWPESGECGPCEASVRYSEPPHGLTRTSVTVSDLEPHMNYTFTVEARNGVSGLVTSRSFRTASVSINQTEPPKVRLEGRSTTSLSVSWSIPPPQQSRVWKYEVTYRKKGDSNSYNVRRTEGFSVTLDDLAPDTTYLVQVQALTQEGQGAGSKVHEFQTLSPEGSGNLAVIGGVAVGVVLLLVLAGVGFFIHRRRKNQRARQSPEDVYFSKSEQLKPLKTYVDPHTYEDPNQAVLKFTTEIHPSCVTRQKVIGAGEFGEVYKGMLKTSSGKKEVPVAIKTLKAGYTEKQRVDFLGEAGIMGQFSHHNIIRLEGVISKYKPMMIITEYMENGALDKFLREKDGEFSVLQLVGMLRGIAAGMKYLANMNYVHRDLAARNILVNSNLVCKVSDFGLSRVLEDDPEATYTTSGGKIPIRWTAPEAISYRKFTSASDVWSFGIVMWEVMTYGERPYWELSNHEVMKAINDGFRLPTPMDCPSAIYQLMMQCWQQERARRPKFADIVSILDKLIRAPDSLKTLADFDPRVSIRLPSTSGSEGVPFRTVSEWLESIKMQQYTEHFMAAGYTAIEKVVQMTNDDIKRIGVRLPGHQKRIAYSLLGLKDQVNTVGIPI

## CN(C)c1ccc(C(=O)Nc2cccc(NC(=O)COc3ccc4c(=O)ccoc4c3)c2)cc1
[1]
  pIC50: < 5.00
[2]
  pIC50: < 5.00
[3]
  pIC50: < 5.00
[4]
  pIC50: < 5.00
[5]
  pIC50: < 5.00
[6]
  pIC50: < 5.00
[7]
  pIC50: < 5.00
[8]
  pIC50: < 5.00
[9]
  pIC50: < 5.00
[10]
  pIC50: < 5.00
CDK9/cyclin T1
  pIC50: < 5.00
[11]
  pIC50: < 5.00
[12]
  pIC50: < 5.00
[13]
  pIC50: < 5.00
[14]
  pIC50: < 5.00
[15]
  pIC50: < 5.00
[16]
  pIC50: < 5.00
[17]
  pIC50: < 5.00
[18]
  pIC50: < 5.00
[19]
  pIC50: < 5.00
[20]
  pIC50: < 5.00
[21]
  pIC50: < 5.00
[22]
  pIC50: < 5.00
Ephrin type-A receptor 2
  pIC50: < 5.00
[23]
  pIC50: 5.97
